Data on 3 molecules can be found in patent publication US8519136B2, “Aminopyridine derivatives having aurora a selective inhibitory action” (MSD K.K., priority 2008, dated 2013).

Assay [1] deals with T1, His-tagged human Aurora A (Homo sapiens, UniProt O14965).
T1 construct: His (N); made in house; host or cells: Escherichia coli BL21-CodonPlus(DE3)-RIL
T1 sequence (O14965 1-403): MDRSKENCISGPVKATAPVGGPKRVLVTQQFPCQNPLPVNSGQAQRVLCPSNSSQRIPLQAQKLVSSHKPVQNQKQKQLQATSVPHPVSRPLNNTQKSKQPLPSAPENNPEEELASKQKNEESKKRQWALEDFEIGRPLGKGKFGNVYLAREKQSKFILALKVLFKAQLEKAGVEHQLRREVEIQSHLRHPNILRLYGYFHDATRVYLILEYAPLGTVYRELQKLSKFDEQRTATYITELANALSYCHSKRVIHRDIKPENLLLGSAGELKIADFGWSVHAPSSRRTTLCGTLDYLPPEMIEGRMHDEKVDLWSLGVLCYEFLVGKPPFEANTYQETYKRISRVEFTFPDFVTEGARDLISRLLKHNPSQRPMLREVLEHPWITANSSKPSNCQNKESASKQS
Description: Aurora A inhibitory activity (IMAP fluorescence polarization). Type of assay: biochemical. The conditions noted are these: 20 μM ATP, 30° C., 120 minutes. The source says: cDNA of N-terminal His-tagged human Aurora A was integrated into an expression vector, which was then highly expressed in Escherichia coli BL21-CodonPlus(DE3)-RIL cells. The Escherichia coli was harvested and lysed, and then the His-tagged human Aurora A protein was applied onto a nickel chelate column and eluted from the column with imidazole. The active fractions were desalted with a desalting column to give a purified enzyme.
For measurement of the activity of Aurora A, the substrate used was a synthetic peptide (5-FAM (5-carboxyfluorescein)-γ-aminobutyric acid-Ala-Leu-Arg-Arg-Ala-Ser-Leu-Gly-NH2) (SEQ.ID.NO.: 1), which was purchased from Toray Research Center, Inc.
For the phosphorylation reaction, the method by Upstate, Inc. [Kinase Profiler™ Assay Protocols] was referred to, and phosphorylation of the substrate was detected using IMAP® technology (Molecular Devices, Co. Ltd.) (Gaudet E W. et. al, J. Biomol. Screen, 8, 164-175 (2003)). Concretely, the phosphorylation reaction and the detection were carried out as follows:
The phosphorylation reaction was conducted using 384 well plate, and the reaction volume was 10 μl/well. The reaction buffer is comprised of 50 mM Tris-chloride buffer (pH 7.4), 15 mM magnesium acetate, and 0.2 mM ethylenediamine-N,N,N′,N′-tetraacetic acid (EDTA). Thereto, the purified Aurora A protein, 100 nM of the peptide substrate, and 20 μM of adenosine 5′-triphosphate (ATP) were added, and then the reaction was carried out at 30° C. for 120 minutes.
Thereafter, in order to terminate and detect the reaction, 30 μl of the IMAP (registered trademark) binding reagent (IMAP Progressive Binding Reagent, R7284) that had been diluted (1:400) in the 1×IMAP binding buffer A (IMAP Progressive Binding Buffer A, 5× stock, R7282) was added to each well. The solution stood still for 60 minutes in the dark, and then fluorescence polarization was measured using a high-end microplate reader (excitation wavelength: 485 nm; emission wavelength: 520 nm).
The compound to be tested was added to the reaction system such that a dilution series of the compound in dimethylsulfoxide (DMSO) was prepared, and then 0.5 μL of this solution was added for the testing to each well. Each control well was provided by adding 0.5 μL of DMSO to the well in place of the DMSO solution containing the compound to be tested.
For orientation: In fluorescence polarisation assays a small probe gives low polarisation when free and higher when bound to something large.

For assay [2], the system named is Human cervical cancer cells (HeLa S3). Description: Cell growth inhibitory effect, WST-8 method. It counts as cell-based. The conditions noted are these: 72 h, HeLa S3, three days incubation, read-out: Cell growth inhibitory effect (HeLaS3) (IC50). The protocol:
Fetal calf serum (FCS) was purchased from Moregate Biotech, and DMEM medium was purchased from Invitrogen Corp. WST-8 was purchased from Kishida Chemical Co., Ltd.
(§1) Human cervical cancer cells (HeLa S3) were obtained from the American Type Culture Collection (ATCC).
Cells were suspended in a DMEM medium containing 10% FCS, and the cell suspension was dispensed to a 96-well plastic plate at a rate of 750 cells/100 microliters per well. The plate was incubated overnight in 5% CO2-95% air at 37° C. A drug was subjected to graded dilution in dimethylsulfoxide and further diluted with a DMEM medium containing 10% FCS. Then, the dilution was dispensed to the plate on which cells had been disseminated, at a rate of 100 microliters per well. The plate was incubated for further three days in 5% CO2-95% air at 37° C. Cell growth after incubation was measured by the WST-8 method (H. Tominaga, et al., Anal. Commun., 36, 47-50 (1999)). Here, the WST-8 method refers to a method in which 20 microliters of a WST-8 reagent solution is added to each well, incubation is conducted at 37° C. for 60 minutes, the plate is stirred, and the amount of formazan produced is measured by a colorimetric method to determine the inhibitory rate of the drug. The concentration for 50% growth inhibition (IC50, μM) of the compound was determined.

Assay [3] has the same test system. Description: Effect by combined use of drugs in cells (with docetaxel), WST-8 method. The conditions noted are these: HeLa S3, three days; for inhibition at 0.3 µM: compound 300 nM alone. It counts as cell-based. The procedure: Fetal calf serum (FCS) was purchased from Moregate Biotech, DMEM medium from Invitrogen Corp., docetaxel (tradename: Taxere) from Sigma-Aldrich, Inc., and WST-8 from Kishida Chemical Co., Ltd.
as §1
Cells were suspended in a DMEM medium containing 10% FCS, and the cell suspension was dispensed to two 96-well plastic plates at a rate of 750 cells/100 microliters per well. The plates were incubated overnight in 5% CO2-95% air at 37° C. A drug was subjected to graded dilution in dimethylsulfoxide and further diluted with DMSO or with a DMEM medium containing 10% FCS and also containing 0.6 nM docetaxel. Then, the dilutions were each dispensed to one of the plates on which cells had been disseminated, at a rate of 100 microliters per well. The final concentration of docetaxel at this stage was 0.3 nM. Also, the concentrations in the case of sole administration of the compound according to the invention were 0.003, 0.01, 0.03, 0.1, 0.3, 1, 3 and 10 μM. The plates were incubated for further three days in 5% CO2-95% air at 37° C. Cell growth after incubation was measured by the WST-8 method (H. Tominaga, et al., Anal. Commun., 36, 47-50 (1999)). Here, the WST-8 method refers to a method in which 20 microliters of a WST-8 reagent solution is added to each well, incubation is conducted at 37° C. for 60 minutes, the plate is stirred, and the amount of formazan produced is measured by a colorimetric method to determine the inhibitory rate of the drug. The growth inhibitory effects of docetaxel and of the compound according to the invention were determined, with the value obtained in sole treatment of DMSO being defined as 0%.
A general note: Formazan colour is commonly taken as a measure of viable cells.

[4] abbreviates: Homo sapiens, HeLa S3, 72 h, read-out: Cell growth inhibitory effect by sole administration of the compound of Example (%).
The mark [5] stands for this setting: compound 300 nM + docetaxel 0.3 nM.

Each structure is given as a SMILES string. Where a name gives a salt, the structure may show the parent alone.

The IC50 is the concentration needed to halve the response being measured. Turning to `Cl.O=C(c1cccc(Cl)c1F)N1CCC(O)(Cc2cccc(Nc3cc[nH]n3)n2)CC1` [Example 2, 1-(3-chloro-2-fluorobenzoyl)-4-((6-(1H-pyrazol-3-ylamino)pyridin-2-yl)methyl)piperidin-4-ol hydrochloride], the 50% inhibitory concentration (IC50) came out at 0.91 nM in assay [1] and 780 nM in assay [2]. Besides, the inhibition at 0.3 µM in assay [3] (setting [4]) was 23.9%. For the same molecule, the “Cell growth inhibitory effect by combined administration of docetaxel and the compound of Example (%)” value in assay [3] (setting [5]) is on record as 90.2%.
The corresponding values for `O=c1[nH]nc(C2(Cc3cccc(Nc4cc[nH]n4)n3)CCN(S(=O)(=O)c3ccccc3C(F)(F)F)CC2)o1` [Example 14, 5-(4-((6-(1H-pyrazol-3-ylamino)pyridin-2-yl)methyl)-1-((2-(trifluoromethyl)phenyl)sulfonyl)piperidin-4-yl)-1,3,4-oxadiazol-2(3H)-one trifluoroacetate] are 0.4 nM, 1730 nM, 3.3% and 80.7%.
As for `O=c1[nH]nc(C2(Cc3cccc(Nc4cc[nH]n4)n3)CCN(C(c3cccc(C(F)(F)F)c3)C(F)(F)F)CC2)o1` (stereo not drawn) [Example 19, 5-(4-((6-(1H-pyrazol-3-ylamino)pyridin-2-yl)methyl)-1-(2,2,2-trifluoro-1-(3-(trifluoromethyl)phenyl)ethyl)piperidin-4-yl)-1,3,4-oxadiazol-2(3H)-one trifluoroacetate], the 50% inhibitory concentration (IC50) is 1.27 nM in assay [1] and 1010 nM in assay [2]. Also, the inhibition at 0.1 µM in assay [3] (Homo sapiens, HeLa S3, 72 h, compound 100 nM alone, read-out: Cell growth inhibitory effect by sole administration of the compound of Example (%)) was 7.6%. In assay [3] (compound 100 nM + docetaxel 0.3 nM), the “Cell growth inhibitory effect by combined administration of docetaxel and the compound of Example (%)” value amounted to 86.0%.
